According to US20220299532A1, “CORRECTING PROTEIN MISFOLDING IN DIABETES” (Sanford Burnham Prebys Medical Discovery Institute, priority 2019, published 2022):
Residues, ends and D or L forms follow the SMILES beside them. *: point of attachment. Cbz = O=C(OCc1ccccc1)*

Columns and labels:
mouse pancreatic islets = test: Proinsulin disulfide-linked / HMW complexes in murine islets, SDS-PAGE immunoblot (CCI-17); format: cell-based; settings: islets of WT male mice on regular diet, increasing concentrations of DTT in culture
Experimental: Mouse pancreatic islet isolation: Mice were euthanized by CO2 narcosis as per an approved institutional animal protocol. The pancreas was rapidly excised, minced in ice-cold PBS, and digested in 4 mL of Collagenase P (Roche) 1.5 mg/mL in Hank's Balanced Salt Solution containing calcium and magnesium, in a shaking water bath for 30 min at 37° C. The digestion was terminated in 40 mL ice-cold PBS (—Ca/—Mg) and the digested tissue washed twice in this buffer. The sedimented tissue digest was then overlaid with 3 mL Histopaque-1077 and further overlayed with 6 mL ice cold PBS (—Ca/—Mg) before centrifugation (3000 rpm for 20 min at 10° C. with no brake) and transfer of the midlayer of the Histopaque gradient to a 15 ml tube for two further washes in ice-cold PBS. Finally, the sedimented tissue was transferred to a petri dish in ice-cold RPMI-1640 buffer and islets hand-picked to purity. In experiments involving drug or compound treatment, the islets were finally recovered overnight in RPMI-1640 supplemented with 10% fetal bovine serum (FBS), 10 mM HEPES pH 7.35, 1 mM sodium pyruvate and 0.05 mM beta-mercaptoethanol, in a humidified 5% CO2 incubator at 37° C. For some experiments, islets were snap frozen in liquid nitrogen and stored frozen prior to analysis.
(§1) Lysis of cells or islets for SDS-PAGE and electrotransfer: After removal of media, cells were washed once with ice-cold PBS and lysed in RIPA buffer (10 mM Tris pH 7.4, 150 mM NaCl, 0.1% SDS, 1% NP40, 2 mM EDTA) plus protease inhibitor/phosphatase inhibitor cocktail (Sigma-Aldrich) or directly in Laemmli gel sample buffer. Lysates in RIPA buffer were immediately spun at 10,000 rpm for 10 min at 4° C. and the supernatants analyzed further or stored at −80° C. Islets that had been quick frozen were placed on ice and RIPA buffer containing protease inhibitor cocktail and phosphatase inhibitor was added. Lysis was carried out by gently pipetting or by syringe through a 30G needle. Total protein concentration in the lysate was determined by BCA or Bramhall assay, and 5-10 μg of samples prepared in SDS sample were resolved by SDS-PAGE in 4-12% Bis-Tris NuPAGE gels (Invitrogen) at 200 V for 30 min. Nonreducing gels were incubated in a solution containing 20 mM dithiothreitol (DTT) for 10 min at room temperature prior to electrotransfer.
(§2) Immunoblotting: Transfer membranes were rinsed once in TBST (15 mM Tris, 150 mM NaCl, 0.1% Tween-20), blocked using TST plus 5% BSA for 1 h at room temperature, and then washed four times (5 min each) in TBST. Primary antibody and secondary antibodies were diluted in TBST and each of […] incubations was 1 h at room temperature followed by 4 washes in TBST. On occasion, primary antibodies were incubated overnight at 4° C. Secondary antibodies were all HRP-conjugates. Development of immunoblots used enhanced chemiluminescence (Immobilon, Millipore, or SuperSignal West Pico PLUS, Thermo Fisher Scientific) with images captured using a Fotodyne gel imager.
Islet Isolation: Islets were isolated by collagenase P (Roche) perfusion as described following by histopaque-1077 (Sigma-Aldrich, Inc. St. Louis) gradient purification. Islets were handpicked and studied directly or after overnight culture in RPMI 1640 medium (Corning 10-040-CV) supplemented with 10% FBS, 1% penicillin/streptomycin, 100 μg/m1 primocin, 10mM Hepes, and 1mM sodium pyruvate.
Islet Western Blotting: Isolated islets were lysed in RIPA buffer (10 mM Tris pH 7.4, 150 mM NaCl, 0.1% SDS, 1% NP-40, 2mM EDTA) with protease and phosphatase inhibitors (Fisher Scientific) on ice for 10 min and lysates were collected after centrifugation at 4° C. for 10 min at 12000 g. Samples were prepared in Laemmli sample buffer without (non-reducing) or with (reducing) 5% β-mercaptoethanol. After boiling for 5 min, samples were analyzed by SDS-PAGE (4-12% Bis-Tris gel, (Bio-Rad Laboratories, Inc.)) and transferred to nitrocellulose membranes (Bio-Rad Laboratories, Inc.). […]

[1] = tested on: murine embryonic fibroblasts (MEFs); test: Human proinsulin delivered by adenovirus to murine embryonic fibroblasts, non-reducing SDS-PAGE; format: cell-based, mouse; settings: MEFs infected with Ad-hProins, increasing concentrations of DTT
Experimental: Generation and culture of primary mouse embryonic fibroblast (MEF): WT C57BL/6 d14 embryos were isolated under sterile conditions and placed in 100 mm cell culture dish containing PBS. Placental and other maternal tissues were removed and the embryos were washed three times with PBS. Heads and visceral organs were removed. The heads were used for genotyping. Embryos were finely minced with a sterile razor blade and treated with 1 ml of 0.25% trypsin/EDTA (Corning) for 40 min at 37° C. DMEM medium (Corning) supplemented with 10% FBS, 1% penicillin/streptomycin, 100 μg/ml primocin and 1 mM sodium pyruvate was added to quench trypsin activity. Tissue homogenate was subsequently disaggregated by repeated pipetting, and further centrifuged to collect the fibroblast cell pallet. Cells were plated in 100 mm culture dish in DMEM medium at 37° C. in a cell culture incubator under 5% CO2. To prevent mycoplasma, bacterial, and fungal contamination, primary MEFs were cultured in medium containing 100 μg/ml primocin (InvivoGen) and used for experiments prior to passage #5.
To study the impact of PDIA1 in the absence of C peptide processing in a more manipulatable system, the inventors analyzed human proinsulin expression delivered by adenovirus to murine embryonic fibroblasts (MEFs) that were co-infected with WT PDIA1 or PDIA1 with 4 Cys to Ser mutations in the two vicinal catalytic PDI sites. […]

INS-832/13 β-cell line = test: Detection of myc-tagged two-cysteine proinsulin mutants in INS-832/13 cells, nonreducing SDS-PAGE immunoblot; format: cell-based, rat; settings: MG132 10 μg/mL for 7 h
Experimental: (§3) Cell and islet culture: Rat pancreatic beta cell lines INS1E and INS-832/13 were cultured in RPMI-1640 medium supplemented with 10% FBS, 10 mM HEPES pH 7.35, 1 mM sodium pyruvate, penicillin/streptomycin and 0.05 mM beta-mercaptoethanol. HEK293T human cells lines were cultured in DMEM supplemented with 10% FBS and penicillin/streptomycin.
(§4) Transfection of cells: 293T cells, INS1E cells, and INS-832/13 cells at 70-80% confluency were transiently transfected using Lipofectamine 2000 (ThermoFisher) as per the manufacturer's instructions. A medium change was performed 5 h post-transfection and the cells were lysed at 36 or 48 h.
as §1, with “Islets that had been quick frozen were placed on ice and RIPA buffer containing protease inhibitor cocktail and phosphatase inhibitor was added. Lysis was carried out by gently pipetting or by syringe through a 30G needle.” left out, “Nonreducing gels were incubated in a solution containing 20 mM dithiothreitol (DTT) for 10 min at room temperature prior to electrotransfer.” left out

293T cells = test: Disulfide-linked complexes of recombinant human proinsulin in 293T cells, nonreducing SDS-PAGE immunoblot (mAb 20G11); format: cell-based; settings: overnight PERK inhibitor
Experimental: as §3, §4
as §1, with “Islets that had been quick frozen were placed on ice and RIPA buffer containing protease inhibitor cocktail and phosphatase inhibitor was added. Lysis was carried out by gently pipetting or by syringe through a 30G needle.” left out, “Nonreducing gels were incubated in a solution containing 20 mM dithiothreitol (DTT) for 10 min at room temperature prior to electrotransfer.” left out

INS1E cells [2] = test: Intracellular proinsulin distribution in INS1E cells, indirect immunofluorescence; format: cell-based, rat; settings: overnight PERK inhibitor, anti-proinsulin GS-9A8 and anti-calnexin
Experimental: Immunohistochemistry/immunocytochemistry: Pancreatic paraffin sections were de-paraffinized with Citrisolv (Fisher Scientific) for 5 min at room temperature, re-hydrated in a series of 8 min ethanol incubations: 100%, 95%, 70%, and distilled water. Antigen retrieval was carried out using Retrieve-ALL 1 Universal pH 8 (BioLegend) and slides were heated in a microwave, cooled for 30 min at room temperature, and incubated once with PBS for 5 min. Blocking was performed in 150 μL blocking buffer (3% BSA prepared in TBS and 0.2% Triton X-100) per section for 2 h at room temperature. Blocking buffer was removed and 150 μL per section of primary antibody appropriately diluted in TBS plus 3% BSA and 0.2% Tween-20 was incubated overnight at 4° C. The primary antibody was removed and the slide washed twice with TBS/0.1% Tween-20. Then, 150 μL secondary antibody (1:500 dilution, prepared in antibody buffer) per section was incubated for 1 h at room temperature. Slides were washed thrice with TBS/0.1% Tween-20, mounted with a drop of prolong gold anti-fade reagent with DAPI (ThermoFisher) and a cover slip affixed. For immunocytochemistry, INS1E cells were grown in an 8-well Millicell® EZ SLIDE (Millipore-SIGMA). Cells were allowed to reach 60-80% confluency before addition of PERK inhibitor (PERKi) or vehicle. […]

human islets = test: Proinsulin disulfide-linked complexes in human islets, SDS-PAGE immunoblot (mAb 20G11); format: cell-based; settings: overnight PERK inhibitor
Experimental: Human pancreatic islets: Human islets were obtained either from Prodo Labs, or from the NIDDK-funded Integrated Islet Distribution Program (IIDP; NIH UC4-DK098085) and maintained in a humidified 5% CO2 incubator at 37° C. Human islets were cultured ex vivo for up to 96 h in Prodo PIM(R) islet19 specific tissue culture medium supplemented with 10% FBS and Prodo PIM(G) glutamine/glutathione supplement, plus penicillin/streptomycin.
as §1, with “Nonreducing gels were incubated in a solution containing 20 mM dithiothreitol (DTT) for 10 min at room temperature prior to electrotransfer.” left out

INS1E cells [3] = test: Proinsulin disulfide-linked complexes in INS1E cells, nonreducing/reducing SDS-PAGE and immunoblotting (mAb CCI-17); format: cell-based, rat
Experimental: HEK293T human cells lines were cultured in DMEM supplemented with 10% FBS and penicillin/streptomycin.
as §1, with “Islets that had been quick frozen were placed on ice and RIPA buffer containing protease inhibitor cocktail and phosphatase inhibitor was added.” left out, “Total protein concentration in the lysate was determined by BCA or Bramhall assay, and 5-10 μg of samples prepared in SDS sample were resolved by SDS-PAGE in 4-12% Bis-Tris NuPAGE gels (Invitrogen) at 200 V for 30 min.” left out
The lane was then laid horizontally on top of a 10% SDS-polyacrylamide resolving gel and sealed in place in stacking gel. A single-tooth comb was introduced at one end of the stacking gel to introduce a one-dimensional reduced sample of proinsulin containing cell lysate (which runs as proinsulin monomer). The gel was run at 200 V for 45 mins in Tris-Glycine buffer pH 8.8 with electrotransfer as described above.
as §2

## O[C@H](CS)[C@H](O)CS (racemic) [dithiothreitol]
Mouse pancreatic islets
  proinsulin monomer and dimer: increasing amounts of the proinsulin monomer and residual disulfide-linked dimer
[1]
  reduced proinsulin: increased the amount of reduced proinsulin

## CC(C)C[C@@H](C=O)NC(=O)[C@H](CC(C)C)NC(=O)[C@H](CC(C)C)NC(=O)OCc1ccccc1 [MG132] (Cbz-Leu-Leu-Leu-aldehyde)
INS-832/13 β-cell line
  detection of myc-tagged proinsulin mutants (keep-B7/A7, keep-A6/A11, keep-B19/A20): myc-tagged proinsulin monomers were detected in all cases

## Cc1cccc(CC(=O)N2CCc3c2ccc(-c2cn(C)c4ncnc(N)c24)c3F)n1 [PERK inhibitor, GSK2656157]
293T cells
  disulfide-linked proinsulin dimers and higher-order complexes of recombinant human proinsulin: accumulated to a dramatically higher level
INS1E cells [2]
  intracellular proinsulin distribution: shifted its distribution to the classic impacted-ER phenotype
Human islets; nonreducing SDS-PAGE
  higher order disulfide-linked proinsulin complexes: further increase in higher order disulfide-linked complexes
Human islets; reducing SDS-PAGE
  total islet proinsulin: increase in total islet proinsulin
INS1E cells [3]; INS1E cells treated with PERK inhibitor, 2D nonreducing/reducing SDS-PAGE
  disulfide-linked proinsulin complexes as share of all recovered proinsulin: 87%
INS1E cells [3]; INS1E cells, PERK inhibitor for last 0, 5, 10 or 20 h
  intracellular proinsulin in disulfide-linked complexes with increasing time of exposure: the majority of intracellular proinsulin accumulated in disulfide-linked complexes
INS1E cells [3]; INS1E cells, PERK inhibitor overnight (GSK2656157, 2 μM) vs vehicle DMSO
  intracellular accumulation of proinsulin: dramatically increased
INS1E cells [3]; INS1E cells, PERK inhibitor up to 20 h
  insulin content: decreased insulin content
INS1E cells [3]; INS1E cells, PERK inhibitor up to 20 h, media
  proinsulin secretion: decreased proinsulin secretion
INS1E cells [3]; INS1E cells, overnight PERK inhibitor, nonreducing SDS-PAGE of media
  secretion of proinsulin to the medium: not increased
